In PMC5638327, “Comparison of bioavailability and antiplatelet action of ticagrelor in patients with ST-elevation myocardial infarction and non-ST-elevation myocardial infarction: A prospective, observational, single-centre study” (PLoS ONE, 2017):
Read-outs that look alike come from different tables or passages of the source.

Columns and labels:
platelet reactivity = experiment: Platelet reactivity by Multiplate (multiple electrode aggregometry) after ticagrelor loading dose; format: in vivo, human (patients with myocardial infarction); conditions: median [interquartile range]; for time to achieve platelet inhibition below the cut-off value for HPR (Multiplate): HPR = AUC >46 U
Procedure: (§1) Consecutive STEMI and NSTEMI patients admitted to the study site (Cardiology Department, Dr. A. Jurasz University Hospital, Bydgoszcz, Poland) were screened for eligibility. After admission to the study centre, confirmation of the initial diagnosis of STEMI or NSTEMI, and provision of a written informed consent to participate in the trial, all study participants received an oral 300 mg LD of plain aspirin (Polpharma SA, Starogard Gdański, Poland) and 180 mg LD ticagrelor in integral tablets with 250 mL tap water. Subsequently, within 15 minutes of ticagrelor LD, all patients underwent coronary angiography followed by PCI as required. During the periprocedural period, all study participants received unfractionated heparin in body weight adjusted dose according to the European Society of Cardiology (ESC) recommendations. Plasma concentrations of ticagrelor and its active metabolite, as well as their antiplatelet effect, were evaluated according to the sampling schedule employed at our centre in previous PK/PD study (pre-treatment, 0.5 h, 1 h, 2 h, 3 h, 4 h, 6 h and 12 h post ticagrelor LD).
(§2) Blood samples for PK/PD evaluation were obtained from an 18-gauge cannula inserted into one of the forearm veins. The first 5 mL blood was discarded to avoid spontaneous platelet activation. In each patient specimens were collected at the eight pre-defined time. Detailed description of blood sample processing has been published in the study protocol (S1 File).
Platelet reactivity was assessed using VASP and Multiplate. The VASP assay (Biocytex, Inc., Marseille, France) was used in all study participants, while Multiplate (Roche Diagnostics International Ltd., Rotkreuz, Switzerland) was used in all except in those treated with glycoprotein (GP) IIb/IIIa receptor inhibitors. Pharmacodynamic evaluation was performed according to the manufacturers' instructions. HPR was defined as platelet reactivity index >50% for the VASP assay and AUC >46 units (U) for Multiplate. […]
Table 1 Inclusion and exclusion criteria of the PINPOINT study
Inclusion criteria Exclusion criteria
▸ Provision of informed consent prior to any ▸ Treatment with ticlopidine, clopidogrel, prasugrel or ticagrelor within study-specific procedure 14 days before the study enrolment
▸ Diagnosis of STEMI or NSTEMI ▸ Hypersensitivity to ticagrelor
▸ Men or non-pregnant women ▸ Current treatment with oral anticoagulant or chronic therapy with low-molecular-weight heparin
▸ Provision of informed consent for angiography ▸ Active bleeding […]
▸ History of intracranial haemorrhage
▸ Fibrinolytic treatment during the index event
▸ Recent gastrointestinal bleeding (within 30 days)
▸ History of coagulation disorders
▸ History of moderate or severe hepatic impairment
▸ History of major surgery or severe trauma (within 3 months)
▸ Second or third degree atrioventricular block during screening for […]
▸ Patient requiring dialysis
▸ Manifest infection or inflammatory state
▸ Killip class III or IV during screening for eligibility
▸ Current therapy with strong CYP3A inhibitors or strong CYP3A […]
NSTEMI, non-ST-elevation myocardial infarction; PCI, percutaneous coronary intervention; STEMI, ST-elevation myocardial infarction. […]
MEA (Roche Diagnostics International, Rotkreuz, staff and the attending physician. The type of implanted Switzerland) will be used at all predeﬁned time points stent and choice of the access site for coronary invasive ( ﬁgure 1) for all study participants with the exception of procedure (radial or femoral ) will be at the discretion of those treated with glycoprotein IIb/IIIa (GP IIb/IIIa) the operator. During the periprocedural period, all study receptor inhibitors as this therapy may affect the results participants will receive unfractionated heparin in body of platelet reactivity assessment per formed with MEA weight adjusted dose according to the ESC recommenda-( ﬁgure 2). Pharmacodynamic assessment with VASP and tions.2336Administration of GP IIb/IIIa receptor in- […]

[1] = Pharmacokinetic assessment: plasma concentrations by liquid chromatography tandem mass spectrometry after ticagrelor loading dose; format: in vivo, human (patients with myocardial infarction); conditions: for Tmax / AUC(0-t) / Cmax: both sexes, human, plasma, 180 mg
Procedure: as §1, §2
Ticagrelor and AR-C124910XX plasma concentrations were analyzed with liquid chromatography coupled with tandem mass spectrometry, using a validated method. Lower limits of quantification were 4.69 ng/mL for both ticagrelor and AR-C124910XX.
Statistical calculations were performed using the Statistica 12.5 package (StatSoft, Tulsa, OK, USA). Pharmacokinetic calculations and plots were made using the Matlab R2014 software (Mathworks, Natick, MA, USA); trapezoidal rule was applied to calculate AUC. Data for pharmacokinetic features of ticagrelor and AR-C124910XX, pharmacodynamic outcome variables, creatinine, glomerular filtration rate and left ventricle ejection fraction were presented as medians and interquartile ranges. Data for heart rate, systolic and diastolic blood pressure, age and body mass index were presented as means with standard deviations. […] Continuous variables were compared between both study groups with the Student’s t-test and Mann-Whitney U test, depending on the presence or absence of the normal distribution (as assessed by the Shapiro-Wilk test). Comparisons between categorical variables were performed by the chi-square test, with Yates's correction if necessary, or using Fisher's exact test. […]
Blood samples for pharmacokinetic and phar- infarction; PCI, percutaneous coronary intervention; PD, macodynamic assessment will be drawn at eight prede- pharmacodynamics; PK, pharmacokinetics; STEMI, ﬁned time points according to the blood sampling ST-elevation myocardial infarction. schedule already used at our site in a previous study
( pretreatment baseline, 30 min, 1, 2, 3, 4, 6 andsamples will be stored at temperature below −60°C until 12 hours post-ticagrelor LD— as shown in ﬁgure 1). 31 analysed.
All enrolled patients with ﬁnally unconﬁrmed initial Venous blood for the assessment of pharmacodynam-diagnosis of AMI will be excluded from the primar y ana- ics with the vasodilator-stimulated phosphoprotein lysis. Patients qualiﬁed for urgent coronar y arter y bypass (VASP) assay and multiple electrode aggregometr y surgery within the blood sampling period also will not (MEA) will be collected into trisodium citrate and be included in the analysis. All study participants not hirudin vacuum test tubes, respectively. The ﬁrst 3–5mL receiving PCI will be reported. of blood will be discarded to avoid spontaneous platelet Study population activation. The pharmacodynamic analysis will be per- […]

platelet inhibition = system: platelet inhibition; parameters: method as in earlier work; conditions: 2 hours after ticagrelor LD; ref 18 20 25 (of the protocol); cited from earlier work
[2] = Pharmacokinetic assessment: plasma concentrations by liquid chromatography tandem mass spectrometry after ticagrelor loading dose; format: in vivo, human (patients with myocardial infarction); conditions: both sexes, human, oral, 180 mg, internal pilot study, first 15 patients with NSTEMI, mean and SD, read-out: AUC(0–6)
[3] = po, NSTEMI patients, oral 180 mg ticagrelor LD, 0 to 12 hours, median [interquartile range]
[4] = po, STEMI patients, oral 180 mg ticagrelor LD, 0 to 12 hours, median [interquartile range]

- Tmax ([1]; oral, NSTEMI opioid-treated (morphine) patients (second value of the pair), post hoc analysis, median [interquartile range]): 4 h
- Tmax ([1]; oral, NSTEMI patients without morphine (first value of the pair), post hoc analysis, median [interquartile range]): 1 h
- AUC(0-t) ([1]; oral, internal pilot study, first 30 patients with STEMI, mean and SD, read-out: AUC(0–6)): 2380 ± 2280 ng·h/mL
- AUC(0-t) ([1]; po, NSTEMI patients (n = 24), oral 180 mg ticagrelor LD, median [interquartile range], read-out: AUC(0–6)): 3990 ng·h/mL
- Cmax [1, 3]: 1160 ng/mL
- Tmax [1, 3]: 2.5 h
- AUC(0-t) ([1]; po, NSTEMI patients, oral 180 mg ticagrelor LD, median [interquartile range], read-out: AUC(0–12)): 8600 ng·h/mL
- AUC(0-t) ([1]; po, STEMI patients (n = 49), oral 180 mg ticagrelor LD, median [interquartile range], read-out: AUC(0–6)): 2490 ng·h/mL
- Cmax [1, 4]: 1110 ng/mL
- Tmax [1, 4]: 4 h
- AUC(0-t) ([1]; po, STEMI patients, oral 180 mg ticagrelor LD, median [interquartile range], read-out: AUC(0–12)): 5680 ng·h/mL
- lower AUC(0–6) in STEMI than in NSTEMI patients ([1]; first 6 h after 180 mg ticagrelor LD): 38%
- AUC(0-t) [2]: 6410 ± 4080 ng·h/mL
Compound: CCCSc1nc(N[C@@H]2C[C@H]2c2ccc(F)c(F)c2)c2nnn([C@@H]3C[C@H](OCCO)[C@@H](O)[C@H]3O)c2n1 [ticagrelor]
- Platelet reactivity (Multiplate) (platelet reactivity; NSTEMI, 0.5 h after 180 mg ticagrelor LD): 49.0 [21.0–86.0] U
- Platelet reactivity (Multiplate) (platelet reactivity; NSTEMI, 2 h after 180 mg ticagrelor LD): 18.0 [10.0–31.0] U
- time to achieve platelet inhibition below the cut-off value for HPR (Multiplate) (platelet reactivity; NSTEMI): 0.5 [0.5–2.0] h
- Platelet reactivity (Multiplate) (platelet reactivity; STEMI, 0.5 h after 180 mg ticagrelor LD): 88.0 [51.5–103.5] U
- Platelet reactivity (Multiplate) (platelet reactivity; STEMI, 2 h after 180 mg ticagrelor LD): 36.0 [22.0–52.5] U
- time to achieve platelet inhibition below the cut-off value for HPR (Multiplate) (platelet reactivity; STEMI): 2.0 [0.5–3.0] h
- patients with STEMI with inadequate platelet inhibition (platelet inhibition): ≤ 60%
